The record followed here is patent EP0885186B1, “AMINO ACID DERIVATIVES, PHARMACEUTICAL COMPOSITIONS CONTAINING THESE COMPOUNDS AND PROCESSES FOR PREPARING THEM” (Dr. Karl Thomae GmbH, priority 1995, dated 1997).

Broadly, the IC50 is the concentration that gives 50% inhibition.

Assay [1] has as its target T1, NPY-Y1 receptor (Homo sapiens, UniProt P25929).
T1 construct: endogenous in cells; host or cells: SK-N-MC cells (whole cells in suspension)
T1 sequence (P25929 1-384): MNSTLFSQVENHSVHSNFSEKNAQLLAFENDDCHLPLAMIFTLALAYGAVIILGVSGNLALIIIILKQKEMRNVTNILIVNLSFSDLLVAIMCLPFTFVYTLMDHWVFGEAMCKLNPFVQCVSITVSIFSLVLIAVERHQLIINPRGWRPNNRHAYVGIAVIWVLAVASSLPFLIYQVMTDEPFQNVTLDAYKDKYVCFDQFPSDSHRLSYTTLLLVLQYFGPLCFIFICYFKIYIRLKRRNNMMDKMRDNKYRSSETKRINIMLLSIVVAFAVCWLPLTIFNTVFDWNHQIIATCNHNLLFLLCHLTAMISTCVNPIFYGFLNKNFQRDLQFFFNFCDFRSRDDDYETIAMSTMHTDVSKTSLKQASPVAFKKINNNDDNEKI
Nature of the assay: Studies of binding with SK-N-MC cells, displacement of [125I]-Bolton-Hunter-NPY. The note with it: inhibition of specific binding of [125I]-Bolton-Hunter-NPY, 3 hours at ambient temperature. The procedure: A. Studies of binding with SK-N-MC cells (expressing the human Y1-receptor)
The cells are detached using a mixture of 0.02% EDTA in PBS and resuspended in 10 ml of incubation medium (MEM/25 mM Hepes + 0.5% BSA, 50 µM PMSF, 0.1% bacitracin, 3.75 mM CaCl2) per 40 million cells approx. After 5 minutes' centrifuging (150 x g) the pellet is resuspended in the same volume and, after a further washing step in 10 ml of incubation medium, counted and diluted to 1.25 million cells/ml. Then 200 µl of a suspension of 1.25 million cells/ml is incubated for 3 hours at ambient temperature with 25 µl of a 300 pM solution of [^125I]-Bolton-Hunter-NPY and increasing concentrations (10^-11 to 10^-6 M) of the test substances, whilst maintaining a total volume of 250 µl. Incubation is ended by centrifuging (10 minutes at 3000 x g and 4°C). After washing once with PBS, the radioactivity of the pellet is measured in a gamma counter. The radioactivity thus obtained represents the sum of specific and non-specific binding of [^125I]-Bolton-Hunter-NPY. The proportion of non-specific binding is defined as that radioactivity which is bound in the presence of 1 µM NPY. The IC50 values of the unlabelled test substances are determined graphically. They represent the concentration of the test substance in question at which the specific binding of[^125I]-Bolton-Hunter-NPY to the NPY-Y1 receptor is inhibited by 50%.

Assay [2] relates to NPY-induced food intake. Nature of the assay: Food intake in satiated rats after NPY application to the paraventricular nucleus. In kind it is in vivo. Particulars: for Food intake following NPY application: 2 h intake, satiated rats; for % Inhibition of food intake: versus vehicle + NPY. As to the method: D. In vivo Studies in rats: Food intake in satiated rats
For these determinations food intake was measured in normal satiated rats after application of NPY to the paraventricular nucleus (PVN) in the presence or absence of the test compound. Male Chbb: Thom rats weighing between 300 and 350 g were used for all experiments. The rats were individually housed in stainless steel cages where water and food were available ad libitum.
Rats under Pentobarbital anaesthesia were stereotactically implanted with a stainless steel double guide cannula targeted bilaterally at the PVNs. Stereotactic coordinates were: -1.8mm caudal, 0.5mm lateral to bregma and 7.0mm below the skull surface. Injection cannulae extended the guide cannulae by 1 mm. Animals were allowed to recover from surgery for at least 10 days before being used in the experiments. Rats were handled and mock-injected during the one-week recovery period to habituate them to the injection procedure.
Animals treated with both test compounds and NPY were treated first with the test compound. Then, 15 min. after PVN infusion of the test compound or vehicle (control) 1 µg of NPY was administered by PVN infusion.
Food intake was measured by placing preweighed pellets into the cages at the time of NPY injection. Pellets were removed from the cage at 2 h post NPY injection. The food intake of animals treated with test compound was calculated as a percentage of the food intake of control animals, i.e., animals treated with vehicle.

The subject of assay [3] is NPY-induced blood pressure effects. Put plainly: In vivo NPY-antagonism, pithed rats, NPY-induced increase in diastolic blood pressure. The note with it: test substance injected 1 min before NPY 10 µg/kg i.v. The procedure: C. In vivo NPY-antagonism
Male rats of normal blood pressure (Chbb:THOM, 300 to 350 g) are anaesthetised with sodium hexobarbital (150 mg/kg, i.p.). After intubation of the trachea the animals are pithed by introducing a blunt needle through the eye into the spinal bone marrow channel. The animals are ventilated with oxygen-rich ambient air using a respiratory pump (20 strokes/minute). A cannula is inserted in the left carotid artery and the arterial blood pressure is measured using a pressure gauge (Braun Melsungen Combitrans) connected to a recording device. For injection purposes a catheter is placed in the left jugular vein through which heparin is administered (200 IU/kg, i.v.). After the blood pressure has been stabilised, the animals are given 2 bolus injections of NPY (10 µg/kg, i.v.) at intervals of 15 minutes. The average increase in diastolic blood pressure is taken as the reference value (= 100%). The test substances are injected in increasing doses (4 to 6 doses) at intervals of 15 minutes. One minute after administration of the test substance, NPY is administered.
The antagonistic effect of the test substances is determined by plotting the percentage inhibition of the NPY-induced blood pressure effects against the logarithm of the concentration of active substance.

Assay [4] relates to NPY activity. Put plainly: NPY-antagonism in vitro, isolated perfused rat kidney, NPY-induced perfusion pressure increase. Further details: species or system rats. The note with it: inhibition of pressure increase by NPY (1µM) bolus. The procedure:
B. NPY-antagonism in vitro
Male rats (CHbb: THOM, 300 to 350 g) are given heparin (100 IU, i.v.) and the animals are then killed by a blow to the back of the neck. The abdomen is opened along the centre of the body and the left kidney is removed after the insertion of catheters in the renal artery, renal vein and ureter. The isolated kidney is immediately perfused with a modified Krebs-Ringer solution having the following composition (4 ml/minute):
A mixture of 95% O2/5% CO2 is passed through the solution which is kept at a temperature of 37°C. The perfusion pressure is measured continuously using a pressure gauge. After a 60 minute stabilisation period the perfusion rate is adjusted so as to obtain a perfusion pressure of approximately 100 mm Hg. After a further 30 minutes the experiment is started and NPY (1µM) is administered as a bolus (0.1 ml) at 15 minute intervals until the pressure increase observed reaches a constant value. The compounds to be tested are given in the form of a continuous infusion over a period of 5 minutes and then NPY is injected. After a 30 minute wash-out period the next highest concentration of test substance is investigated. 3 to 5 different concentrations of the particular compound are tested on each occasion. […]

Assay [5] deals with food-deprived rats. Put plainly: Food intake in food-deprived rats. In kind it is in vivo. The note with it: 24 hour food deprived rats, 15 µg, bilaterally, into PVN. The procedure:
Food intake in food-deprived rats
Food-deprivation experiments were conducted with male Chbb:Thom rats weighing between 300 and 350 g. The animals were individually housed for the duration of the study and allowed free access to normal food together with tap water. Food was removed from the animals for 24 hours starting at 8:00 a.m. At the end of the fasting period compound or vehicle was administered to the animals by infusion into the PVN. Food was returned to the animals and their food intake monitored at various time periods during the following 24 hour period. The food intake of animals treated with test compound was calculated as a percentage of the food intake of control animals (i.e., animals treated with vehicle).

In turn, `CCOC(=O)CNC(=O)NCc1ccc(CNC(=O)[C@@H](CCCNC(=N)N)NC(=O)C(c2ccccc2)c2ccccc2)cc1` [(E), (R)-N^2-(diphenylacetyl)-N-[[4-(ethoxycarbonylmethylamino-carbonylaminomethyl)-phenyl)methyl]-argininamide] returned an IC50 in assay [1] of 0.4 nM.

For the compound “NPY: NPY, agonist applied to the paraventricular nucleus (1 µg) to elicit feeding response in satiated rats”, the “two hour food intake” value in assay [2] (NPY 1µg into PVN, 0.5 g in animals injected with vehicle) was found to be 3.5 g.

Compound `N=C(N)NCCC[C@@H](NC(=O)C(c1ccc(O)cc1)c1ccc(O)cc1)C(=O)NCc1ccc(CNC(N)=O)cc1` [(G), (R)-N-[[4-(aminocarbonylaminomethyl)phenyl]methyl]-N^2-[bis-(4-hydroxyphenyl)-acetyl]-argininamide] registered an IC50 in assay [1] of 0.17 nM.

For `CCNC(=O)NCc1ccc(CNC(=O)[C@@H](CCCNC(=N)N)NC(=O)C(c2ccccc2)c2ccccc2)cc1` [(D), (R)-N^2-(diphenylacetyl)-N-[[4-(ethylaminocarbonylamino-methyl)phenyl]methyl]-argininamide], in assay [1], the IC50 was found to be 0.75 nM.

The compound `N=C(N)NCCC[C@@H](NC(=O)C(c1ccccc1)c1ccccc1)C(=O)NCc1ccc(CNC(N)=O)cc1` [(A), (R)-N-[[4-(aminocarbonylaminomethyl)phenyl]methyl]-N^2-(diphenylacetyl)-argininamide] showed a pID50 in assay [3] of 8.11 mol/kg. The compound also came in with a pIC50 in assay [4] of 8.12 mol/l. In addition, the “duration of significant reduction in food intake” value in assay [5] is given as “at least 4 h”. The figures for the “Food intake following NPY application” value in assay [2] (15 µg of compound by PVN infusion 15 min before 1 µg NPY), in assay [2] (30 µg of compound by PVN infusion 15 min before 1 µg NPY) and in assay [2] (60 µg of compound by PVN infusion 15 min before 1 µg NPY) were 2.62 g/animal, 1.67 g/animal and 1.07 g/animal, respectively. Moreover, the “% Inhibition of food intake” value in assay [2] (15 µg of compound by PVN infusion) is on record as 25.9%; in assay [2] (30 µg of compound by PVN infusion) it was 52.8%; in assay [2] (60 µg of compound by PVN infusion), 69.8%.

For the compound `N=C(N)NCCC[C@@H](NC(=O)C(c1ccccc1)c1ccccc1)C(=O)NCc1ccc(CC(N)=O)cc1` [(C), (R)-N-[[4-(aminocarbonylmethyl)phenyl]methyl]-N^2-(diphenylacetyl)-argininamide], the IC50 in assay [1] came out at 0.63 nM.

As for `CN(CCCC(NC(=O)C(c1ccccc1)c1ccccc1)C(=O)NCc1ccc(O)cc1)C(=N)N` (racemic) [(B), (R,S)-N^5-(aminoiminomethyl)-N^2-(diphenylacetyl)-N-[(4-hydroxyphenyl)methyl]-N^5-methyl-ornithinamide], the pID50 in assay [3] is 7.87 mol/kg. The IC50 in assay [1] was 0.62 nM. Moreover, the pIC50 in assay [4] is 8.41 mol/l.

For `N=C(N)NCCC[C@@H](NC(=O)C(c1ccc(Cl)cc1)c1ccc(Cl)cc1)C(=O)NCc1ccc(CNC(N)=O)cc1` [(F), (R)-N-[[4-(aminocarbonylaminomethyl)phenyl]methyl]-N^2-[bis-(4-chlorophenyl)-acetyl]-argininamide], in assay [1], the IC50 stood at 0.35 nM.
